In brackets after ≈: the same amount, converted by molar mass.
Tests used:
[1] = system: biosynthesis of RNA in L1210 cells; experiment: RNA biosynthesis in L1210 cells (incorporation of 14C-uridine into acid-insoluble materials); assay type: cell-based, murine; conditions: Mus musculus, L1210, 1 h; 60 min, 37° C., 14C-uridine 0.05 μCi/ml; read-out: IC50 of the incorporation of radioactivity into acid-insoluble materials, 14C-uridine
Experimental: (§1) (2) L1210 cells were inoculated at 5×10^5 cells/ml into a RPMI 1640 medium containing 10% calf serum and cultivated at 37° C. for 1 to 2 hours in a CO2 incubator. The compound in the present invention at various concentrations and ^14 C-thymidine (0.05 μCi/ml) or ^14 C-uridine (0.05 μCi/ml) were added and incubated at 37° C. for 60 min. After stopping the pulse-labeling by addition of 10% trichloroacetic acid (TCA) to the reaction mixture, acid-insoluble materials were precipitated, washed 3 times with 5 to 10% TCA, and dissolved in a small amount of formic acid, and then the radioactivity of the solution was determined. Effects on the biosynthesis of DNA and RNA were shown by the 50% inhibition concentration (IC50) of the incorporation of radioactivity into acid-insoluble materials.

[2] = system: murine leukemic L1210 cells; experiment: growth inhibition of murine leukemic L1210 cells in culture; assay type: cell-based; conditions: Mus musculus, RPMI 1640, 20% calf serum, 37° C., read-out: inhibition of control growth; for inhibition at 0.5 µg/mL: 0.5 μg/ml
Experimental: For example, L1210 cells were inoculated into a RPMI 1640 medium (Nissui, Rosewell Park Memorial Institute 1640) containing 20% calf serum at the cell density of 5×10^4 cells/ml and the compound in the present invention was simultaneously added to the medium at the concentration of 0.1 and 0.5 μg/ml and cultivated at 37° C. in a CO2 incubator.

Sal. typhimurium = experiment: mutagenicity by the Ames' test
leukemic L1210 = experiment: antitumor activity in leukemic L1210-bearing mice; assay type: in vivo, BDF1 mice; conditions: in words
Experimental: (§2) For example, BDF1 mice were inoculated intraperitoneally with 1×10^6 cells/mouse. 24 hours after inoculation, the compound was intraperitoneally injected once daily for 10 days consecutively. […] At the dose of 10 mg/kg/day weight loss was observed, but general toxicity was less than daunomycin.

toxicity in mice = assay type: in vivo; conditions: in words
Experimental: as §2

[3] = system: biosynthesis of DNA in L1210 cells; experiment: DNA biosynthesis in L1210 cells (incorporation of 14C-thymidine into acid-insoluble materials); assay type: cell-based, murine; conditions: Mus musculus, L1210, 1 h; 60 min, 37° C., 14C-thymidine 0.05 μCi/ml; read-out: IC50 of the incorporation of radioactivity into acid-insoluble materials, 14C-thymidine
Experimental: as §1

SMILES | IC50 [1] [µg/mL] | inhibition at 0.1 µg/mL ([2]; 0.1 μg/ml) [%] | inhibition at 0.5 µg/mL [2] [%] | mutagenicity relative to daunomycin (Sal. typhimurium) | antitumor activity in leukemic L1210-bearing mice (leukemic L1210) | toxicity in mice compared with daunomycin (toxicity in mice) | IC50 [3] [µg/mL]
COc1ccc(O)c2c1C(=O)c1c(O)c3c(c(O)c1C2=O)C[C@@](O)(C(C)O)C[C@@H]3O[C@H]1C[C@H](N)[C@H](O)[C@H](C)O1 (stereo partly shown) [1-hydroxy-13-dihydrodaunomycin] | 1.8 (≈ 3.3 µM) | 10.8 | 52.2 | decrease about a half of daunomycin | marked antitumor activity | lower toxicity than daunomycin | 3.8 (≈ 6.97 µM)
COc1ccc(O)c2c1C(=O)c1c(O)c3c(c(O)c1C2=O)C[C@@](O)(C(C)O)C[C@@H]3O[C@H]1C[C@H](NC=O)[C@H](O)[C@H](C)O1 (stereo partly shown) [N-formyl-1-hydroxy-13-dihydrodaunomycin] | > 2.5 |  | 16 | decrease about a half of daunomycin | marked antitumor activity | lower toxicity than daunomycin | > 2.5

— patent US4267312A, “Anthracycline derivatives and process for preparing the same” (Sanraku-Ocean Co., Ltd., priority 1978, dated 1981)
